Several values for one entry are separate records, joined by “and”; a condition that tells them apart may be missing. Identical values can stand only once.
How the values were obtained:
Assay in all cases: radiometric filter-binding kinase assay, Kinase HotSpot
Conditions in all cases: compound 0.5 µM; ATP 10 µM
RAF1 (human) = RAF1 (human) (UniProt P04049)
EPHB4 (human) = EPHB4 (human) (UniProt P54760)
NTRK2 (human) = NTRK2 (human) (UniProt Q16620)
MAPK10 (human) = MAPK10 (human) (UniProt P53779)
PRKCG (human) = PRKCG (human) (UniProt P05129)
TTK (human) = TTK (human) (UniProt P33981)
FLT1 (human) = FLT1 (human) (UniProt P17948)
DYRK1A (human) = DYRK1A (human) (UniProt Q13627)
NEK4 (human) = NEK4 (human) (UniProt P51957)
FYN (human) = FYN (human) (UniProt P06241)
FGFR3 (human) = FGFR3 (human) (UniProt P22607)
CAMKK2 (human) = CAMKK2 (human) (UniProt Q96RR4)
CAMK1D (human) = CAMK1D (human) (UniProt Q8IU85)
MST1R (human) = MST1R (human) (UniProt Q04912)
DAPK3 (human) = DAPK3 (human) (UniProt O43293)
CSNK1A1 (human) = CSNK1A1 (human) (UniProt P48729)
MAPK8 (human) = MAPK8 (human) (UniProt P45983)
CAMKK1 (human) = CAMKK1 (human) (UniProt Q8N5S9)
CDK2 CCNE1 (human) = CDK2 CCNE1 (human) (UniProt P24941+P24864)
DYRK2 (human) = DYRK2 (human) (UniProt Q92630)
PRKCB2 (human) = PRKCB2 (human) (UniProt P05771)
FGFR2 (human) = FGFR2 (human) (UniProt P21802)
CDK5 CDK5R1 p35 (human) = CDK5 CDK5R1 p35 (human) (UniProt Q00535+Q15078)
PAK1 (human) = PAK1 (human) (UniProt Q13153)
CAMK2A (human) = CAMK2A (human) (UniProt Q9UQM7)
PIM3 (human) = PIM3 (human) (UniProt Q86V86)
MAPK14 (human) = MAPK14 (human) (UniProt Q16539)
AKT1 (human) = AKT1 (human) (UniProt P31749)
PRKCA (human) = PRKCA (human) (UniProt P17252)
[1] = biological target: TYK2 JH1 catalytic (human) (UniProt P29597)
JAK2 JH1 JH2 (human) = JAK2 JH1 JH2 (human) (UniProt O60674)
CDK7 CCNH MNAT1 (human) = CDK7 CCNH MNAT1 (human) (UniProt P50613+P51948+P51946)
PKN1 (human) = PKN1 (human) (UniProt Q16512)
[2] = tested on: PRKCQ (human), Q04759 [P330L]
CSNK1G3 (human) = CSNK1G3 (human) (UniProt Q9Y6M4)
MAPK1 (human) = MAPK1 (human) (UniProt P28482)
FER (human) = FER (human) (UniProt P16591)
RPS6KA2 KD1 KD2 (human) = RPS6KA2 KD1 KD2 (human) (UniProt Q15349)
STK33 (human) = STK33 (human) (UniProt Q9BYT3)
MKNK2 (human) = MKNK2 (human) (UniProt Q9HBH9)
LYN (human) = LYN (human) (UniProt P07948)

DYRK2 (human), sequence (Q92630 whole entry, looked up): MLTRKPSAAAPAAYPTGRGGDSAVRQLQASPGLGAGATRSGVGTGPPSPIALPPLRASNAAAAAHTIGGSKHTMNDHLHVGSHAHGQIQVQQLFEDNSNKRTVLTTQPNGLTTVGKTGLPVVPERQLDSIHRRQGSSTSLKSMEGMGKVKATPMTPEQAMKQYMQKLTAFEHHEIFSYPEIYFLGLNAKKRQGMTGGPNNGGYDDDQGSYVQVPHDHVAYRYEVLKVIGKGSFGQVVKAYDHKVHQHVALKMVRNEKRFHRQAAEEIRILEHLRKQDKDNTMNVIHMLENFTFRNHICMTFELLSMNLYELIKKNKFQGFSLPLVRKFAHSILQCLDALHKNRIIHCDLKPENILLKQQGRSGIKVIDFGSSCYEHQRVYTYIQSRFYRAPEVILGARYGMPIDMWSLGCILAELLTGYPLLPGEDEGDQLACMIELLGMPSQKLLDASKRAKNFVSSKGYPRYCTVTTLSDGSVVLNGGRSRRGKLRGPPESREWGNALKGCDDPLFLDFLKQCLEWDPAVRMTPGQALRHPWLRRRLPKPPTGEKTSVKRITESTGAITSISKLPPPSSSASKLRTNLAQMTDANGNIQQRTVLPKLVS
CSNK1G3 (human), sequence (Q9Y6M4 whole entry, looked up): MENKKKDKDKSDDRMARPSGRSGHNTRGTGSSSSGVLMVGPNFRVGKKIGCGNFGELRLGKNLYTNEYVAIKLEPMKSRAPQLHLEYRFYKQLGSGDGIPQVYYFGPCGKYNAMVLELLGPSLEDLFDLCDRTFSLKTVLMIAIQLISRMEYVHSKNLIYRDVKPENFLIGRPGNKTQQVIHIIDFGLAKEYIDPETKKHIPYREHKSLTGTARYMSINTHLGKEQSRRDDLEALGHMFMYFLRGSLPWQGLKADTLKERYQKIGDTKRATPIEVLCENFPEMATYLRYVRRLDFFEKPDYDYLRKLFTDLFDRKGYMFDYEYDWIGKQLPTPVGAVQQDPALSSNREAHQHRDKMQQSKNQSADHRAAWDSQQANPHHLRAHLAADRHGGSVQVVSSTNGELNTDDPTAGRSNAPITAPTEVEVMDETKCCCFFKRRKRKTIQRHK
DAPK3 (human), sequence (O43293 whole entry, looked up): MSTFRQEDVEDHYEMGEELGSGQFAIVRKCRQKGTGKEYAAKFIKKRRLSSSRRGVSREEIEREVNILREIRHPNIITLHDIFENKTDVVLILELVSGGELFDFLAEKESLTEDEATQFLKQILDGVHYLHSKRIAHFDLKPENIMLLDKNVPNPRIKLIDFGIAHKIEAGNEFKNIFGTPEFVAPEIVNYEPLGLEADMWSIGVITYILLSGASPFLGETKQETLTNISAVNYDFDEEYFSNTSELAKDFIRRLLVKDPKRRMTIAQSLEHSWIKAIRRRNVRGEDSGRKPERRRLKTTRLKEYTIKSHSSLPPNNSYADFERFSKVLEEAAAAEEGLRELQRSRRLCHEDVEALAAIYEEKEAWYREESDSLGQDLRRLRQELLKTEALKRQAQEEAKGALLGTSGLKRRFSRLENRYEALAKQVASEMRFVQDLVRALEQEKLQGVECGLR
STK33 (human), sequence (Q9BYT3 whole entry, looked up): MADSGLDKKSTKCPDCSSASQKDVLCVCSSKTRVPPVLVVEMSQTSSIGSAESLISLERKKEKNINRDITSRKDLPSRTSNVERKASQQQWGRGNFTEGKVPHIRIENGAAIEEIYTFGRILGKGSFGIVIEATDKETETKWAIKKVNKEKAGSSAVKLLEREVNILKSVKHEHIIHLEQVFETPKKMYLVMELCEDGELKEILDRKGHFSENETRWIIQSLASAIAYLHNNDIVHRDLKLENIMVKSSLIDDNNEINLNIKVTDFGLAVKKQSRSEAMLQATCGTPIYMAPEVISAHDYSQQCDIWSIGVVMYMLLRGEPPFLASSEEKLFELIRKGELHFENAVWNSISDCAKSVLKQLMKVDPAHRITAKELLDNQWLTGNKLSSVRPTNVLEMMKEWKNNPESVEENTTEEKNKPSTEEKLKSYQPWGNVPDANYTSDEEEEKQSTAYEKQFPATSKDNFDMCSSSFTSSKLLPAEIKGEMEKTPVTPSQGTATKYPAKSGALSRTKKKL
MAPK10 (human), sequence (P53779 whole entry, looked up): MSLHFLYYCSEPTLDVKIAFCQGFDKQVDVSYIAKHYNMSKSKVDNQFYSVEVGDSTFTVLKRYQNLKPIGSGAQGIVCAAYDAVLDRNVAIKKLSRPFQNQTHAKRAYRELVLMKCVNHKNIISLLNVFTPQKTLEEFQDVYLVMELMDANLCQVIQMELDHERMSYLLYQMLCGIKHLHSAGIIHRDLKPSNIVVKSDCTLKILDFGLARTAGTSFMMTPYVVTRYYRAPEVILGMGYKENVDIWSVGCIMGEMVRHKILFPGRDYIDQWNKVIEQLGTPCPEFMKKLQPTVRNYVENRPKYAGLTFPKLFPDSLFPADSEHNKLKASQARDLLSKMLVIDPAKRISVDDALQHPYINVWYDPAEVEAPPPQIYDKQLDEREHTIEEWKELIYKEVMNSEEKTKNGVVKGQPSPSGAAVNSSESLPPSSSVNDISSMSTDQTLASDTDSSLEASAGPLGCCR
MAPK8 (human), sequence (P45983 whole entry, looked up): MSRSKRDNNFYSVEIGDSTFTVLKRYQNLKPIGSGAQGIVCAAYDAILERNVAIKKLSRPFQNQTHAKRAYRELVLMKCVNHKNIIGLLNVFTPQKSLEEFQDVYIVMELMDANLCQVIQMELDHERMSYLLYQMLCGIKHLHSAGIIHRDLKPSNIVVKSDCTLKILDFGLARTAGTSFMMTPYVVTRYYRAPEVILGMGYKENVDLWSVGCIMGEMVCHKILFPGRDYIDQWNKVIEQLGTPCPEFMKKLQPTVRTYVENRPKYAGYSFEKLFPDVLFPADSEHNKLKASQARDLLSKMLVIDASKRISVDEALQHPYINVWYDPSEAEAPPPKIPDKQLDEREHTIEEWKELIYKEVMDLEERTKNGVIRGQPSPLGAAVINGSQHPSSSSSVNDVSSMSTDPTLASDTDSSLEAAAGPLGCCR
RPS6KA2 KD1 KD2 (human), sequence (Q15349 whole entry, looked up): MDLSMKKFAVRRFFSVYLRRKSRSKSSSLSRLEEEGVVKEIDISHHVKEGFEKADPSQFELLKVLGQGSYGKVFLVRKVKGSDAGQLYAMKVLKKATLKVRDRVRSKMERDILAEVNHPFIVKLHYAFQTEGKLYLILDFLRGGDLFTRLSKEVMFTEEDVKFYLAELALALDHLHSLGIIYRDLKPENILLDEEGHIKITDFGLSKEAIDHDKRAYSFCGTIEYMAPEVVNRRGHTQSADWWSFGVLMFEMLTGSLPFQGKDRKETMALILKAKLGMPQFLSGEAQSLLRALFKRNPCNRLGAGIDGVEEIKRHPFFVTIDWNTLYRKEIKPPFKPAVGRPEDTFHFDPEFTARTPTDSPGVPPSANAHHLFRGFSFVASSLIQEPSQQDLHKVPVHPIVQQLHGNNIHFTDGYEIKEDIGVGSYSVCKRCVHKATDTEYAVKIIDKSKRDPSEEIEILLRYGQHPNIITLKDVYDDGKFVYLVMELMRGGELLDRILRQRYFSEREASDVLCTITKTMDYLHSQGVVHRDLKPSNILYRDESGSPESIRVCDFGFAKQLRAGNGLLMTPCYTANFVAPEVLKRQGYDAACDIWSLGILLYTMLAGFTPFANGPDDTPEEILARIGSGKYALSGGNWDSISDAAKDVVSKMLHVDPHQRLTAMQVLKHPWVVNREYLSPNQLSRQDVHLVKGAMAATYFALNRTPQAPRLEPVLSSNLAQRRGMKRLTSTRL
MAPK1 (human), sequence (P28482 whole entry, looked up): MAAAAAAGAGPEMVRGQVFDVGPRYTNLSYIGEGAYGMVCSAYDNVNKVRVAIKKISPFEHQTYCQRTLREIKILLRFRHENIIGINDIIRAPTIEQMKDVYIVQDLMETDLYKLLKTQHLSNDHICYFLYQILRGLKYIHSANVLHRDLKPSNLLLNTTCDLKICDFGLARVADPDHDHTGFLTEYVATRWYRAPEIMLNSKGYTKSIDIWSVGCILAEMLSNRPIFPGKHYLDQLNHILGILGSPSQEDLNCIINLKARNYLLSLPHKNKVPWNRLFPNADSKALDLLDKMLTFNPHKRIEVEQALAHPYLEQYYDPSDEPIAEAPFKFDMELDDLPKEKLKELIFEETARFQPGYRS
PRKCB2 (human), sequence (P05771 whole entry, looked up): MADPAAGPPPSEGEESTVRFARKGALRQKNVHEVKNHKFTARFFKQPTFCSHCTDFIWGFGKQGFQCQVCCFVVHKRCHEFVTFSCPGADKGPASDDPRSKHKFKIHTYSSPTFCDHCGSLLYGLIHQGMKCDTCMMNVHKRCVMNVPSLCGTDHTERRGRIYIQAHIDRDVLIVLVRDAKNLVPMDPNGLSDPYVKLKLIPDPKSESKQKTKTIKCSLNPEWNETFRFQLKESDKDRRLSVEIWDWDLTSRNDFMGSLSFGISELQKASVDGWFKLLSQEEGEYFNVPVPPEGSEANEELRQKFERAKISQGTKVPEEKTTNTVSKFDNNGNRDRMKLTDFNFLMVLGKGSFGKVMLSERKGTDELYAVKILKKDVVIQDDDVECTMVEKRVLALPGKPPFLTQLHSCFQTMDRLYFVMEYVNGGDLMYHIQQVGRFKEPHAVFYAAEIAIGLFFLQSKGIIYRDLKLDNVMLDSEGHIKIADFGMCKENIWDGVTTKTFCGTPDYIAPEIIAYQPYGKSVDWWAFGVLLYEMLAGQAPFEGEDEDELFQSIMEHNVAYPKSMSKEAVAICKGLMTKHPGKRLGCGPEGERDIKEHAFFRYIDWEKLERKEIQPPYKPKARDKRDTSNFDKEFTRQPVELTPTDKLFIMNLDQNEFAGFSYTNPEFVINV

COc1ccc(C(=O)Nc2sc3c(c2C(N)=O)CCCC3)cc1OC
residual activity (RAF1 (human)): 94.8% | residual activity (EPHB4 (human)): 93.9% | residual activity (NTRK2 (human)): 67.4% | residual activity (MAPK10 (human)): 84.5% | residual activity (PRKCG (human)): 93% | residual activity (TTK (human)): 95.6% | residual activity (FLT1 (human)): 99.1% | residual activity (DYRK1A (human)): 97.4% | residual activity (NEK4 (human)): 104% | residual activity (FYN (human)): 93.9% | residual activity (FGFR3 (human)): 98.3% | residual activity (CAMKK2 (human)): 96.9% | residual activity (CAMK1D (human)): 93.8% | residual activity (MST1R (human)): 105% | residual activity (DAPK3 (human)): 102% | residual activity (CSNK1A1 (human)): 108% | residual activity (MAPK8 (human)): 94.7% | residual activity (CAMKK1 (human)): 125% | residual activity (CDK2 CCNE1 (human)): 94.6% | residual activity (DYRK2 (human)): 92% | residual activity (PRKCB2 (human)): 93.5% | residual activity (FGFR2 (human)): 100% | residual activity (CDK5 CDK5R1 p35 (human)): 90.8% | residual activity (PAK1 (human)): 94% | residual activity (CAMK2A (human)): 100% | residual activity (PIM3 (human)): 109% | residual activity (MAPK14 (human)): 97.5% | residual activity (AKT1 (human)): 99.7% | residual activity (PRKCA (human)): 96.6% | residual activity [1]: 117% | residual activity (JAK2 JH1 JH2 (human)): 99.9% | residual activity (CDK7 CCNH MNAT1 (human)): 99.9% | residual activity (PKN1 (human)): 96.3% | residual activity [2]: 97.5% | residual activity (CSNK1G3 (human)): 91.7% | residual activity (MAPK1 (human)): 91.2% | residual activity (FER (human)): 89.8% | residual activity (RPS6KA2 KD1 KD2 (human)): 112% | residual activity (STK33 (human)): 99.5% | residual activity (MKNK2 (human)): 78.7% | residual activity (LYN (human)): 93.5% and 95.9%

Cc1cncc2cccc(S(=O)(=O)N3CCCN(C(=O)CN)C[C@H]3C)c12
residual activity (RAF1 (human)): 95.1% | residual activity (EPHB4 (human)): 85.1% | residual activity (NTRK2 (human)): 102% | residual activity (MAPK10 (human)): 103% | residual activity (PRKCG (human)): 101% | residual activity (TTK (human)): 111% | residual activity (FLT1 (human)): 96.9% | residual activity (DYRK1A (human)): 93.1% | residual activity (NEK4 (human)): 95.3% | residual activity (FYN (human)): 94.2% | residual activity (FGFR3 (human)): 97.7% | residual activity (CAMKK2 (human)): 115% | residual activity (CAMK1D (human)): 104% | residual activity (MST1R (human)): 99.3% | residual activity (DAPK3 (human)): 90.4% | residual activity (CSNK1A1 (human)): 98.9% | residual activity (MAPK8 (human)): 98.8% | residual activity (CAMKK1 (human)): 115% | residual activity (CDK2 CCNE1 (human)): 92.3% | residual activity (DYRK2 (human)): 101% | residual activity (PRKCB2 (human)): 91.3% | residual activity (FGFR2 (human)): 98.4% | residual activity (CDK5 CDK5R1 p35 (human)): 97.4% | residual activity (PAK1 (human)): 98.1% | residual activity (CAMK2A (human)): 93.2% | residual activity (PIM3 (human)): 103% | residual activity (MAPK14 (human)): 110% | residual activity (AKT1 (human)): 104% | residual activity (PRKCA (human)): 109% | residual activity [1]: 86.6% | residual activity (JAK2 JH1 JH2 (human)): 93.9% | residual activity (CDK7 CCNH MNAT1 (human)): 98% | residual activity (PKN1 (human)): 25.3% | residual activity [2]: 105% | residual activity (CSNK1G3 (human)): 106% | residual activity (MAPK1 (human)): 103% | residual activity (FER (human)): 66% | residual activity (RPS6KA2 KD1 KD2 (human)): 89.2% | residual activity (STK33 (human)): 100% | residual activity (MKNK2 (human)): 83.8% | residual activity (LYN (human)): 101%

COc1ccc2c(c1)c(C1=C(c3c[nH]c4ccccc34)C(=O)NC1=O)cn2CCCN(C)C
residual activity (RAF1 (human)): 99.3% | residual activity (EPHB4 (human)): 94.2% | residual activity (NTRK2 (human)): 88.1% | residual activity (MAPK10 (human)): 88.8% | residual activity (PRKCG (human)): 54% | residual activity (TTK (human)): 89.9% | residual activity (FLT1 (human)): 22% | residual activity (DYRK1A (human)): 84.7% | residual activity (NEK4 (human)): 90.7% | residual activity (FYN (human)): 110% | residual activity (FGFR3 (human)): 87.5% | residual activity (CAMKK2 (human)): 82% | residual activity (CAMK1D (human)): 73.3% | residual activity (MST1R (human)): 91.3% | residual activity (DAPK3 (human)): 75.5% | residual activity (CSNK1A1 (human)): 62.3% | residual activity (MAPK8 (human)): 80% | residual activity (CAMKK1 (human)): 94.8% | residual activity (CDK2 CCNE1 (human)): 97.9% | residual activity (DYRK2 (human)): 92.4% | residual activity (PRKCB2 (human)): 14.2% | residual activity (FGFR2 (human)): 90.7% | residual activity (CDK5 CDK5R1 p35 (human)): 81.4% | residual activity (PAK1 (human)): 87.4% | residual activity (CAMK2A (human)): 102% | residual activity (PIM3 (human)): 5.01% | residual activity (MAPK14 (human)): 103% | residual activity (AKT1 (human)): 99% | residual activity (PRKCA (human)): 3.14% | residual activity [1]: 126% | residual activity (JAK2 JH1 JH2 (human)): 97.5% | residual activity (CDK7 CCNH MNAT1 (human)): 88% | residual activity (PKN1 (human)): 34.7% | residual activity [2]: 4.5% | residual activity (CSNK1G3 (human)): 77.8% | residual activity (MAPK1 (human)): 102% | residual activity (FER (human)): 70.9% | residual activity (RPS6KA2 KD1 KD2 (human)): 5.46% | residual activity (STK33 (human)): 56.2% | residual activity (MKNK2 (human)): 81.1% | residual activity (LYN (human)): 112% and 94.2%
